Results on eleven compounds are retold here after ChEMBL document CHEMBL1201862, “PubChem BioAssay data set” (2004).

Test systems include ACHN; CAKI-1; COLO 205; EKVX; HCT-15; HOP-92; MDA-MB-435; MDA-N; MOLT-4; NCI-H226; NCI-H460; OVCAR-5; OVCAR-8; RXF 393; SK-MEL-5; SK-OV-3; SN12C; UACC-257; UO-31; HL-60.
Holding throughout (assay): growth of human tumour cells (NCI), 48 h

Each structure is given as a SMILES string.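 48-hour exposure; five concentrations; linearly interpolated endpoints. At the GI50, growth is halved.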 Activity calls are given as the source filed them. Cut-off read from the data, not from the text of the source: active = GI50 up to about 1.1 µM and inactive = higher.

For the compound `CCOC(=O)c1cn2c(n1)sc1cc(Cl)ccc12`, the GI50 in the test on ACHN is 14.5 µM (inactive); in the test on CAKI-1, 19.2 µM (inactive); with COLO 205, 5.47 µM (inactive); with EKVX, 18.7 µM (inactive); in the test with HCT-15 it was 5.64 µM; in the test on HOP-92, > 100 µM (inactive). Besides, the GI50 is 5.68 µM (inactive) in the test with MDA-MB-435; 2.71 µM (inactive) with MDA-N; 2.96 µM (inactive) in the test with MOLT-4; 72.6 µM (inactive) with NCI-H226; > 100 µM (inactive) with NCI-H460; 15 µM (inactive) in the test with OVCAR-5. Moreover, the GI50 is 21.9 µM (inactive) in the test with OVCAR-8; 45 µM (inactive) with RXF 393; 7.76 µM (inactive) in the test with SK-MEL-5; 52 µM (inactive) with SK-OV-3; 11.4 µM (inactive) in the test on SN12C; 26.7 µM (inactive) with UACC-257. For the same compound, the GI50 with UO-31 was 7.21 µM (inactive).
Take `COc1cccc(C2c3cc4c(cc3OC(C)(O)C2C)OCO4)c1O` (stereo not drawn): the GI50 is 7.06 µM (inactive) with ACHN; 2.19 µM (inactive) in the test on COLO 205; 13.6 µM (inactive) in the test with EKVX; 3.64 µM in the test with HCT-15; 2.82 µM (inactive) with HL-60; 6 µM (inactive) with HOP-92. Further, the GI50 in the test on MDA-MB-435 is 1.42 µM (inactive); in the test on MDA-N, 1.48 µM (inactive); in the test on MOLT-4, 5.25 µM (inactive); in the test with NCI-H226 it was 5.12 µM (inactive); in the test on NCI-H460 it was 3.81 µM (inactive); in the test with OVCAR-5 it was 8.09 µM (inactive). Besides, the GI50 with OVCAR-8 was 4.94 µM (inactive); with RXF 393 it was 3.69 µM (inactive); in the test with SK-MEL-5, 2.84 µM (inactive); in the test with SK-OV-3, 3.57 µM (inactive); with SN12C it was 5.27 µM (inactive); in the test with UACC-257, 8.15 µM (inactive). The GI50 with UO-31 is 6.14 µM (inactive).
Take `CCCNC(=O)c1cc(NC(=O)c2cc(NC(=O)CCS(=O)(=O)OC)cn2C)cn1C`: the GI50 with ACHN was 52.4 µM (inactive); in the test on CAKI-1 it was > 52 µM (inactive); in the test on COLO 205, 6.64 µM (inactive); with EKVX, 51.1 µM (inactive); with HCT-15, over 100 µM; in the test with HOP-92, 3.76 µM (inactive). In addition, the GI50 in the test on MDA-MB-435 was 19.1 µM (inactive); in the test on MDA-N, 20.9 µM (inactive); with MOLT-4, 17.5 µM (inactive); in the test on NCI-H460, > 100 µM (inactive); in the test with OVCAR-5 it was 40.9 µM (inactive); in the test with OVCAR-8 it was 15.2 µM (inactive). Besides, the GI50 in the test on RXF 393 was 14.4 µM (inactive); in the test on SK-MEL-5, 17.1 µM (inactive); in the test on SK-OV-3, 9.55 µM (inactive); in the test with SN12C, 13.8 µM (inactive); in the test with UACC-257, 24 µM (inactive); with UO-31 it was > 100 µM (inactive).
`COc1ccc(/C=C2/SC(c3ccc(Cl)cc3)N(NC(=O)CCCCCCCCC(=O)NN3C(=O)/C(=C\c4ccc(OC)c(OC)c4)SC3c3ccc(Cl)cc3)C2=O)cc1OC` (stereo not drawn): the GI50 in the test on ACHN was 65.2 µM (inactive); with CAKI-1 it was 47.1 µM (inactive); in the test with COLO 205 it was > 100 µM (inactive); with EKVX, 23.6 µM (inactive); in the test with HCT-15, over 100 µM; with HOP-92 it was 18.8 µM (inactive). Also, the GI50 was 42 µM (inactive) with MDA-MB-435; 36.6 µM (inactive) in the test on MDA-N; 47.5 µM (inactive) in the test with MOLT-4; > 100 µM (inactive) with NCI-H226; 61 µM (inactive) with NCI-H460; 87.1 µM (inactive) in the test on OVCAR-5. For the same compound, the GI50 was 52.8 µM (inactive) in the test on OVCAR-8; 28 µM (inactive) in the test with RXF 393; 50.1 µM (inactive) in the test on SK-MEL-5; 31.4 µM (inactive) in the test with SK-OV-3; > 100 µM (inactive) in the test on SN12C; 54.3 µM (inactive) in the test with UACC-257. Further, the GI50 with UO-31 was 27.7 µM (inactive).
For `O=C(O)CCn1cnc2c(S)ncnc21`, the GI50 with ACHN is > 100 µM (inactive); with CAKI-1 it was > 100 µM (inactive); with COLO 205, > 100 µM (inactive); with EKVX, > 100 µM (inactive); with HCT-15, over 100 µM; in the test on HL-60 it was > 100 µM (inactive). The GI50 in the test with MDA-MB-435, in the test on MDA-N, in the test on MOLT-4, in the test on NCI-H226, in the test with NCI-H460 and in the test with OVCAR-5 was > 100 µM (inactive) in each case. The GI50 with OVCAR-8, with RXF 393, with SK-MEL-5, in the test with SK-OV-3, in the test with SN12C and in the test on UACC-257 was > 100 µM (inactive) in each case. In addition, the GI50 in the test on UO-31 was > 100 µM (inactive).
As to `COc1ccc(-c2cc(O)c3cc(OC)c(OC)cc3n2)cc1OC`, the GI50 was > 100 µM (inactive) with ACHN; > 100 µM (inactive) with CAKI-1; > 100 µM (inactive) in the test on COLO 205; > 100 µM (inactive) with EKVX; over 100 µM with HCT-15; 64.4 µM (inactive) with HOP-92. Moreover, the GI50 with MDA-MB-435, in the test on MDA-N, with MOLT-4, in the test with NCI-H226, with NCI-H460 and in the test on OVCAR-5 was > 100 µM (inactive) in each case. The GI50 in the test with OVCAR-8 is > 100 µM (inactive); with RXF 393 it was 67.3 µM (inactive); with SK-MEL-5, > 100 µM (inactive); with SK-OV-3, > 100 µM (inactive); in the test with SN12C, > 100 µM (inactive); in the test with UACC-257 it was > 100 µM (inactive). In addition, the GI50 in the test on UO-31 was > 100 µM (inactive).
For the compound `O=[N+]([O-])c1ccc(C(O)(C#CCN2CCCC2)c2ccccc2)cc1` (stereo not drawn), the GI50 in the test on ACHN was 56.2 µM (inactive); in the test on COLO 205, 18 µM (inactive); in the test with EKVX, 54.6 µM (inactive); in the test with HCT-15, 60.7 µM; in the test on HL-60 it was 18.4 µM (inactive); in the test on HOP-92, 10.2 µM (inactive). In addition, the GI50 was 24.1 µM (inactive) with MDA-MB-435; 34.1 µM (inactive) in the test with MDA-N; 25.8 µM (inactive) in the test on MOLT-4; 81.5 µM (inactive) with NCI-H226; 56.2 µM (inactive) in the test on NCI-H460; 57.9 µM (inactive) in the test with OVCAR-5. Also, the GI50 in the test with OVCAR-8 is 36.6 µM (inactive); with RXF 393, 57.9 µM (inactive); with SK-MEL-5, 21 µM (inactive); in the test on SK-OV-3, 80.7 µM (inactive); in the test on SN12C, 38.3 µM (inactive); in the test on UACC-257, 25.6 µM (inactive). Besides, in the test on UO-31, the GI50 is 26.1 µM (inactive).
As for `CC1(C)[C@@H](Cn2cnc3c(O)nc(N)nc32)CC[C@@]1(C)CO`, the GI50 with ACHN was > 100 µM (inactive); with CAKI-1, > 100 µM (inactive); in the test on EKVX it was > 100 µM (inactive); in the test on HCT-15 it was over 100 µM; with HOP-92 it was > 100 µM (inactive); in the test on MDA-MB-435, > 100 µM (inactive). Further, the GI50 in the test on MDA-N is > 100 µM (inactive); in the test on MOLT-4 it was 1.34 µM (inactive); with NCI-H226, > 100 µM (inactive); in the test on OVCAR-5, > 100 µM (inactive); in the test with RXF 393, > 100 µM (inactive); in the test with SK-MEL-5, > 100 µM (inactive). Besides, the GI50 in the test on SK-OV-3, with SN12C, with UACC-257 and in the test with UO-31 was > 100 µM (inactive) throughout.
On to `CC(CC(=O)O)(CC(=O)O)C(=O)O`, for which the GI50 in the test on ACHN is > 100 µM (inactive); in the test on CAKI-1 it was > 100 µM (inactive); in the test with COLO 205, > 100 µM (inactive); with EKVX it was > 100 µM (inactive); in the test on HCT-15 it was over 100 µM; in the test on HOP-92, > 100 µM (inactive). The GI50 with MDA-MB-435, with MDA-N, in the test with MOLT-4, with NCI-H460, in the test on OVCAR-5 and in the test with OVCAR-8 was > 100 µM (inactive) each time. Moreover, the GI50 with RXF 393, with SK-MEL-5, in the test on SK-OV-3, in the test with SN12C, in the test on UACC-257 and with UO-31 was > 100 µM (inactive) in each case.
Regarding `COC1=CC(=O)c2c(O)ccc(O)c2C1=O`, the GI50 in the test with ACHN was 16.5 µM (inactive); in the test on COLO 205, 1.5 µM (inactive); with EKVX, 20.2 µM (inactive); in the test on HCT-15, 2.4 µM; with HL-60 it was 3.77 µM (inactive); in the test with HOP-92, 18.6 µM (inactive). Further, the GI50 with MDA-MB-435 was 0.659 µM (active); in the test with MDA-N, 0.7 µM (active); in the test with MOLT-4, 13.8 µM (inactive); in the test with NCI-H226, 21.6 µM (inactive); in the test with NCI-H460 it was 5.04 µM (inactive); in the test with OVCAR-5 it was 18.4 µM (inactive). Further, the GI50 in the test on OVCAR-8 was 21.4 µM (inactive); in the test with RXF 393, 16.6 µM (inactive); in the test with SK-MEL-5, 0.851 µM (active); in the test on SK-OV-3 it was 18.6 µM (inactive); in the test with SN12C, 2.65 µM (inactive); in the test on UACC-257, 1.52 µM (inactive). Also, the GI50 in the test with UO-31 was 17.3 µM (inactive).
Take `CC(=O)C(C(=N)C#N)C(=O)Nc1ccccc1` (stereo not drawn): the GI50 with ACHN is > 100 µM (inactive); in the test with CAKI-1 it was > 100 µM (inactive); in the test with COLO 205, > 100 µM (inactive); in the test on EKVX it was > 100 µM (inactive); in the test with HCT-15, over 100 µM; in the test on HOP-92, > 100 µM (inactive). Further, the GI50 in the test on MDA-MB-435, in the test with MDA-N, in the test with MOLT-4, in the test with NCI-H226, in the test with NCI-H460 and in the test on OVCAR-5 was > 100 µM (inactive) in each case. Besides, the GI50 in the test on OVCAR-8, in the test with RXF 393, in the test on SK-MEL-5, in the test on SK-OV-3, in the test on SN12C and with UACC-257 was > 100 µM (inactive) each time.
